The term IC50 denotes the concentration needed to halve the response being measured. Read a high IC50 as a need for much substance.

Activity calls are given as the source filed them. The calls are words filed in the database; no cut-off is given here.

Results on one compound are retold here after ChEMBL document CHEMBL5108012, “Discovery of 2,5-diphenyl-1,3,4-thiadiazole derivatives as HDAC inhibitors with DNA binding affinity” (Eur J Med Chem, 2022).

For test [1], the target named is Histone deacetylase (Homo sapiens) (UniProt Q13547+O15379+Q9UBN7+Q92769+Q9UQL6+Q8WUI4+Q9BY41+Q96DB2+P56524+Q9UKV0+Q969S8). The experiment in a line: Inhibition of HDAC in human HCT-116 cells assessed as increase in acetylated alpha-tubulin expression expression at 0.17 to 1.5 uM incubated for 48 hrs by Western blot analysis. It is filed as cell-based. As to conditions: dose 0.17-1.5 µM. (In western blotting, separated proteins are transferred to a membrane and probed.)

For test [2], the system named is MC-38. The experiment in a line: Antitumor activity against mouse MC38 cells xenografted in C57BL/6 mouse assessed as tumor growth inhibition at 50 mg/kg, ip administered every 2 days for 16 consecutive days. It is filed as functional. The settings on record: MC-38, 384 h, time 16 day, read-out: TGI.
For a further test, the system named is MOLT-4. Put plainly: Antiproliferative activity against human MOLT-4 cells after 48 hrs by CCK-8 assay. It is filed as functional, cell-based. The settings on record: MOLT-4, 48 h. For orientation: Tetrazolium dyes change colour on reduction, which living cells bring about.
Test [3] deals with Histone deacetylase (HDAC1 and HDAC2) (Homo sapiens, UniProt Q13547+Q92769). Put plainly: Inhibition of HDAC1/HDAC2 in human HeLa cell nuclear extract using Boc-Lys(Ac)-AMC as substrate and measured by fluorometric method. It is filed as cell-based.
Test [4] concerns HCT-116. Put plainly: Downregulation of SPT16 expression in human HCT-116 cells at 0.17 to 1.5 uM measured after 24 hrs by Western blot analysis. It is filed as functional, cell-based. The settings on record: dose 0.17-1.5 µM.
A further test addresses Histone deacetylase 1 (Homo sapiens, UniProt Q13547). Put plainly: Inhibition of HDAC1 in human HeLa cell nuclear extract using Boc-Lys(Ac)-AMC or Boc-Lys(triflouroacetyl)-AMC as substrate incubated for 30 mins and measured by fluorescence assay. It is filed as cell-free.
The test system of test [5] is HCT-116. The experiment in a line: Induction of apoptosis in human HCT-116 cells assessed as increase in cleaved caspase-3 expression at 0.17 to 1.5 uM incubated for 48 hrs by Western blot analysis. It is filed as functional, cell-based. The settings on record: dose 0.17-1.5 µM.
For test [6], the system named is MC-38. The experiment in a line: Antitumor activity against mouse MC38 cells xenografted in C57BL/6 mouse assessed as decrease in tumor weight at 50 to 100 mg/kg, ip administered every 2 days for 16 consecutive days. It is filed as functional, organism-based. As to conditions: dose 50-100 mg/kg, time 16.0 day.
The subject of test [7] is HCT-116. Put plainly: Downregulation of SSRP-1 expression in human HCT-116 cells at 0.17 to 1.5 uM measured after 24 hrs by Western blot analysis. The settings on record: dose 0.17-1.5 µM. It is filed as functional, cell-based.
The test system of test [8] is MC-38. The experiment in a line: Antitumor activity against mouse MC38 cells xenografted in C57BL/6 mouse assessed as decrease in Ac-HH3 expression in tumor at 50 to 100 mg/kg, ip administered every 2 days for 16 consecutive days measured by immunohistochemistry analysis. It is filed as functional, organism-based. The settings on record: dose 50-100 mg/kg, time 16.0 day.

For test [9], the system named is Calf thymus DNA. The experiment in a line: Binding affinity to calf thymus DNA at 50 uM incubated for 30 mins and measured by UV-vis absorption spectroscopy. It is filed as nucleic-acid assay. The settings on record: Bos taurus.
A further test deals with HeLa. The experiment in a line: Antiproliferative activity against human HeLa cells after 48 hrs by CCK-8 assay. It is filed as functional, cell-based.
Test [10] relates to Calf thymus DNA. Put plainly: Binding affinity to calf thymus DNA at 50 uM incubated for 30 mins and measured by fluorescence spectroscopy. It is filed as nucleic-acid assay. As to conditions: Bos taurus.

Histone deacetylase 1, sequence (Q13547 whole entry): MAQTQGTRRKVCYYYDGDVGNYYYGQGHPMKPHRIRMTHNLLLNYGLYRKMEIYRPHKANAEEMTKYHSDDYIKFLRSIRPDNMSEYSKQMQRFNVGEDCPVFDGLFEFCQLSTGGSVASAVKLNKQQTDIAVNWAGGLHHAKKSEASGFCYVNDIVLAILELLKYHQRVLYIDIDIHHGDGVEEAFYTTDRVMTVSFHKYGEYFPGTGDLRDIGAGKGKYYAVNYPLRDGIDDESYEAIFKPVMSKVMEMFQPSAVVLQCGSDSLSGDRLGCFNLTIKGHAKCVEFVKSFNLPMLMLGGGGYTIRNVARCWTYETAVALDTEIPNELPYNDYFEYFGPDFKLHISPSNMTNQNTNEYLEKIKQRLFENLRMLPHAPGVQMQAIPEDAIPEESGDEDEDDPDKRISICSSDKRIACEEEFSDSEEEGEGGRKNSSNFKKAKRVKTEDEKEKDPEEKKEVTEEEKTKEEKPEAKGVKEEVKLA

Consider `O=C(CCCCCOc1cccc(-c2nnc(-c3ccccc3)s2)c1)NO`, for which the inhibition result in test [1] was “Active”. For the same compound, the inhibition in vivo at 50 mg/kg in the test on MC-38 [2] came out at 66%. For the same compound, the IC50 with MOLT-4 is 150 nM; in test [3], 38 nM; at Histone deacetylase 1, 15 nM; in the test with HeLa, 780 nM. The outcome in the test on HCT-116 [4], in the test with HCT-116 [5], with MC-38 [6], in the test on HCT-116 [7], with MC-38 [8] and in the test on Calf thymus DNA [9] was Active. In addition, in the test on Calf thymus DNA [10], the outcome was Active.
